# Laboratory results published in ChEMBL document CHEMBL1201862, “PubChem BioAssay data set” (2004).
# Activity calls are given as the source filed them.
# Key:
# Protein RecA = biological target: T1, Protein RecA (Mycobacterium tuberculosis, UniProt P9WHJ3); test: Fluorescence Cell-Free Homogeneous Dose Retest to Identify Inhibitors of RecA-Intein Splicing Activity. [Related pubchem assays (depositor defined):AID2097, AID2223, AID489010, AID492950]; format: functional
# T1 sequence (P9WHJ3 whole entry): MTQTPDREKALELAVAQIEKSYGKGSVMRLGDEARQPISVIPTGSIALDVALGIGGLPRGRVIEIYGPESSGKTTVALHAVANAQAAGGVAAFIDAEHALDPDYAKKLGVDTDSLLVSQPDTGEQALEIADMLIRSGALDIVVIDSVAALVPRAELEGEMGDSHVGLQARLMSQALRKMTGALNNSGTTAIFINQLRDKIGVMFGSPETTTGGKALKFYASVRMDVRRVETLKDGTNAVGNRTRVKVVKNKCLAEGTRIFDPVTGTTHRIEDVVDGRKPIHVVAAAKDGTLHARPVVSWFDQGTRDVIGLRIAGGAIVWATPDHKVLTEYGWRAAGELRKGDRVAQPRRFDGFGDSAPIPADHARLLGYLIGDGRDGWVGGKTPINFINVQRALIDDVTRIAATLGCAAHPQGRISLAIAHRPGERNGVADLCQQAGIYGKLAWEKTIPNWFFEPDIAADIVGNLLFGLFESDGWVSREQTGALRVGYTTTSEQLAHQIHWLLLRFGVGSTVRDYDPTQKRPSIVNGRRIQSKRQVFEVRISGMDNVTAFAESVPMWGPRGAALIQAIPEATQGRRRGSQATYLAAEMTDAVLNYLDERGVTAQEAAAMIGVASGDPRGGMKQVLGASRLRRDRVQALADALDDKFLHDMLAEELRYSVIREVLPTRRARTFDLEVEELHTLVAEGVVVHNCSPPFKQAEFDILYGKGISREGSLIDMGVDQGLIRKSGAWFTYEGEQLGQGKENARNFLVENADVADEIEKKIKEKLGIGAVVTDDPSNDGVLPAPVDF
# [1] = biological target: T2, Replicative DNA helicase DnaB (Mycobacterium tuberculosis, UniProt P9WMR3); test: DnaB intein splicing inhibitors, dose response, biochemical, cell-free fluorescence (AID 449749); format: functional
# T2 sequence (P9WMR3 whole entry): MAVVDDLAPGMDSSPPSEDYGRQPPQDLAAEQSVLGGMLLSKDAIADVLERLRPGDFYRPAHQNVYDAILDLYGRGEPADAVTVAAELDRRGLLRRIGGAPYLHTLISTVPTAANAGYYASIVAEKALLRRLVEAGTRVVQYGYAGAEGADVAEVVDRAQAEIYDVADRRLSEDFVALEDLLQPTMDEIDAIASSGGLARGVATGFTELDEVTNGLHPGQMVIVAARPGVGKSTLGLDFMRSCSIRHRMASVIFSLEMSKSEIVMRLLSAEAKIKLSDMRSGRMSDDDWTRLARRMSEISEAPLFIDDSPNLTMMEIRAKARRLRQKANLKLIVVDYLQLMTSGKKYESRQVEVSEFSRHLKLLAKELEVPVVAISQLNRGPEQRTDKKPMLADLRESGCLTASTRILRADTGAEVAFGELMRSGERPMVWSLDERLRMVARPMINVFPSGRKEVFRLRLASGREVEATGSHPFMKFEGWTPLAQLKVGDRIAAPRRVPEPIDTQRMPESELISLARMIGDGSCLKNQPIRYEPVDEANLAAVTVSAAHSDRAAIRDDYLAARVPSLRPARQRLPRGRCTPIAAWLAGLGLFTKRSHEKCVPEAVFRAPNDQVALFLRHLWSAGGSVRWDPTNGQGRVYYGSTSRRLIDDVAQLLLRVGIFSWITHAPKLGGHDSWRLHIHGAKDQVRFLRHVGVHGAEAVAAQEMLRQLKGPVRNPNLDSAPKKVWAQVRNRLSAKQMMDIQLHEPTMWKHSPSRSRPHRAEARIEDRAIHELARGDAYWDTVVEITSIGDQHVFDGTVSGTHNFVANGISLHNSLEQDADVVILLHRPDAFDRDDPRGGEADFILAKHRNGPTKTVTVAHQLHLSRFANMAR
# Cytochrome P450 2D6 = Cytochrome P450 2D6 (Homo sapiens, UniProt P10635);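 further: CYP2D6 member of a cytochrome P450 panel assay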
# [2] = biological target: T3, Heat shock factor protein 1 (Mus musculus, UniProt P38532); test: enhancement of HSF1-driven luciferase signal – cell-based, NIH3T3, luminescence, dose retest, confirmation (AID 435004); format: functional;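 further: stress induced by proteasome inhibitor MG132 added 30 min after compound; luciferase reporter driven by HSF1 response element in NIH3T3 cells; actives raise luminescence as potentiators of the MG132 stress response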
# T3 sequence (P38532 whole entry): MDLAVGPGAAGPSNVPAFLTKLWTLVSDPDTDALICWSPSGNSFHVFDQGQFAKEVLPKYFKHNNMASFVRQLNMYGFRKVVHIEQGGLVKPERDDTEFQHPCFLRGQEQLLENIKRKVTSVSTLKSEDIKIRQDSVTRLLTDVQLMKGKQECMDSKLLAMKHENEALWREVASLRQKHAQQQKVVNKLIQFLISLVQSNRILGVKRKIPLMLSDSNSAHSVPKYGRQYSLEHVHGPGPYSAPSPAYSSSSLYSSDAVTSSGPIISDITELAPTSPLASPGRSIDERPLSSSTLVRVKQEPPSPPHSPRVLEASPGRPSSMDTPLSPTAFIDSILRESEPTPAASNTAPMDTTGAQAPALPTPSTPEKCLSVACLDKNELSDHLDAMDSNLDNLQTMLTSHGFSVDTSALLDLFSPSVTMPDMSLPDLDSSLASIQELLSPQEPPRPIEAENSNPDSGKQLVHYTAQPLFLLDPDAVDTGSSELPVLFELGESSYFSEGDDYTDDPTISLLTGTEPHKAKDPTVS
# [3] = biological target: T4, Polyadenylate-binding protein 1 (Homo sapiens, UniProt P11940); test: MLLE domain peptide-binding blockers, IC50 – biochemical, fluorescence polarization, FITC-PAM2 peptide, dose response (AID 602259); format: functional; conditions: read-out: IC50_Mean
# INS1 = test: INS-1E survival protection against cytokine death – cell-based, luminescence, retest, dose response (AID 449756); format: functional; conditions: Rattus norvegicus;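 further: cell death triggered by IL-1 beta plus TNF-alpha plus IFN-gamma mixture; protective hits raise ATP signal compared with cytokine alone wells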
# [4] = NIH3T3 cell viability loss – ATP luminescence, mouse fibroblasts, counter-screen, dose response (AID 2010); format: functional, cell-based;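 further: cells exposed to compound for about 90 hours before reading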
# [5] = biological target: T4, Polyadenylate-binding protein 1; test: MLLE binding blockers, Cy5 peptide tracer – biochemical, fluorescence polarization, Cy5-PAM2 peptide, secondary, miRNA deadenylation inhibitor project, dose response (AID 602260); format: functional; conditions: read-out: IC50_Mean
# [6] = Trypanosoma cruzi growth suppression in host cells – NIH3T3 host cells, beta-gal luminescence, confirmation (AID 2044); format: functional, cell-based;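 further: intracellular parasites grown in NIH/3T3 mouse fibroblasts as host cells; luminescent beta-galactosidase reporter signal from transgenic T. cruzi replicating inside host cells; inhibitors lower the luminescence signal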
# [7] = viability of uninfected HEp-2 cells – cell-based, HTS, cytotoxicity control for RSV inhibitor project, dose response (AID 2410); format: functional; conditions: human respiratory syncytial virus
# [8] = biological target: T5, Corticotropin-releasing factor receptor 2/Corticotropin-releasing factor-binding protein (Homo sapiens, UniProt P24387+Q13324); test: activators of CRF receptor 2 with binding protein – uHTS hits, confirmation (AID 602473); format: functional; conditions: read-out: EC50_Mean
# T5 sequence (Q13324 whole entry): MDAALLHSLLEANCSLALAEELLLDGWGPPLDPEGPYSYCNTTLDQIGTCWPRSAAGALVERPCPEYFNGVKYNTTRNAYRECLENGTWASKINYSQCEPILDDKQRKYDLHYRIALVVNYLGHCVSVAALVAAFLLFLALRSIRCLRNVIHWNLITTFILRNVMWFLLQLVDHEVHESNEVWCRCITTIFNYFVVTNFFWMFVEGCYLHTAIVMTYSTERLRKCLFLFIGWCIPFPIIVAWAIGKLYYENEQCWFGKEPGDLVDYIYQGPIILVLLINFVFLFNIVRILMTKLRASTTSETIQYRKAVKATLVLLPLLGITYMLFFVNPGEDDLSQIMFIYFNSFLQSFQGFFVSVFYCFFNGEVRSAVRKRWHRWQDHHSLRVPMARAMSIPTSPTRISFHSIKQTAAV
# T5 sequence (P24387 whole entry): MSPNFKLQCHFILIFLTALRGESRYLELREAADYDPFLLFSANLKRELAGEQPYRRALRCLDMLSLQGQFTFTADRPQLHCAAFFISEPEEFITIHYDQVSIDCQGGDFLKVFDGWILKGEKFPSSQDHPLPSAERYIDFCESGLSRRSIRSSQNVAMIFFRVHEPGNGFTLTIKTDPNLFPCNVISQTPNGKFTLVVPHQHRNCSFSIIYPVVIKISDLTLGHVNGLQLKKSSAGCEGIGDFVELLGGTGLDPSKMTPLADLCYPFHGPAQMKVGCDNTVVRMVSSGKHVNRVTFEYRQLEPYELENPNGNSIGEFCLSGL
# [9] = biological target: T5, Corticotropin-releasing factor receptor 2/Corticotropin-releasing factor-binding protein; test: Dose Response confirmation of uHTS hits for small molecule antagonists of the CRF-binding protein and CRF-R2 receptor complex.; format: functional; conditions: read-out: IC50_Mean
# T4 sequence (P11940 whole entry, the tested form may be a part): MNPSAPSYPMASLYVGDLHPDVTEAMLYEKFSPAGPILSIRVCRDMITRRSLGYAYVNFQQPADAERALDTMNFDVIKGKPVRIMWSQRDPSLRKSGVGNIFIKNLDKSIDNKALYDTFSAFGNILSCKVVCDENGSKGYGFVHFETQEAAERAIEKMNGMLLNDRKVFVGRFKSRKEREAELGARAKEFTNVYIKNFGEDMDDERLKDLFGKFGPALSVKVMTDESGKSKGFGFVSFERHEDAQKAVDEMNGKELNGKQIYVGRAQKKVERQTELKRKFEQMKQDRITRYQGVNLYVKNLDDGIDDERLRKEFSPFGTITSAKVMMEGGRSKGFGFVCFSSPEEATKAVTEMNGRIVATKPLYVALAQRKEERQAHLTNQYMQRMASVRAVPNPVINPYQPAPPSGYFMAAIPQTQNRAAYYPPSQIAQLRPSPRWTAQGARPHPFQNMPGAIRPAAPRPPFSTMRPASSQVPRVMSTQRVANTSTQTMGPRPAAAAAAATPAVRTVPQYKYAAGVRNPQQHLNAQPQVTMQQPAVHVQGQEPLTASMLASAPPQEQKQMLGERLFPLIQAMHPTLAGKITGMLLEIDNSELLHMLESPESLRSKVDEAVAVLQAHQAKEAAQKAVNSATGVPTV
# Cytochrome P450 2D6, sequence (P10635 whole entry): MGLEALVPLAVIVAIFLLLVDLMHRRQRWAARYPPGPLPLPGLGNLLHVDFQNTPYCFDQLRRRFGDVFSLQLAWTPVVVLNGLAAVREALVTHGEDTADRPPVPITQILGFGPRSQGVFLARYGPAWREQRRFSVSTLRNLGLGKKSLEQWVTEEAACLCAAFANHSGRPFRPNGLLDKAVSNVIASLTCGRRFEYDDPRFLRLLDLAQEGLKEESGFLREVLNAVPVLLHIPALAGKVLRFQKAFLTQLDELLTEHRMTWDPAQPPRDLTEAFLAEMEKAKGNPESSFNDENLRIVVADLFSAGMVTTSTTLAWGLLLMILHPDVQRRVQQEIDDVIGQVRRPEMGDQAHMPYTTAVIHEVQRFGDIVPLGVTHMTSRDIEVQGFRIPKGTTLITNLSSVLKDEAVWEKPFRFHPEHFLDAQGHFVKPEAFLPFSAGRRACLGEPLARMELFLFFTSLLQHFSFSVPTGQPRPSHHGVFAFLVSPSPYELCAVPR
smiles,measurement,setting,value
O=[N+]([O-])c1cc(/C=N/c2cccc3c(O)cccc23)ccc1Cl,EC50,Protein RecA,8.76 µM (active)
same,AC50,[1],46.8 µM (active)
COC(=O)COc1ccc(C(c2c(C)n[nH]c2O)c2c(C)n[nH]c2O)cc1,EC50,Protein RecA,0.377 µM (active)
same,AC50,[1],0.347 µM (active)
CC(C)c1cccc2c([Si](C)(C)C)c3c(nc12)-c1cccc(=O)n1C3,AC50,Cytochrome P450 2D6,20 µM (inconclusive)
COc1ccc(C(C(=O)NCC2CCCO2)N(C(=O)Cn2nnc3ccccc32)c2ccc(NC(C)=O)cc2)cc1OC (centres undefined),EC50,[2],> 260 µM (inactive)
CN(c1cccc(NC(=O)CN(c2cccc(Cl)c2)S(=O)(=O)c2ccc(Cl)cc2)c1)S(C)(=O)=O,EC50,[2],> 260 µM (inactive)
CN(C)c1ncc2nc(-c3ccc(Cl)cc3)c(=O)n(C[C@H]3CCCO3)c2n1,AC50,Cytochrome P450 2D6,1.58 µM (inconclusive)
Cc1n[nH]c2c1C1(CCC3(CC1)OCCO3)C(C#N)=C(N)O2,EC50,Protein RecA,> 380 µM (inactive)
same,AC50,[1],> 380 µM (inactive)
Cc1ccc2c(c1)N(C(=O)CSc1nncn1C)C(C)(C)c1ssc(=S)c1-2,EC50,Protein RecA,10.1 µM (active)
same,AC50,[1],8.82 µM (active)
COCCNc1ncnc2ccc(-c3ccccc3C(F)(F)F)cc12,AC50,Cytochrome P450 2D6,39.8 µM (inconclusive)
Cc1ccc(O)c(CNc2nccs2)c1,EC50,[2],20.5 µM (active)
Cc1cc2cc(CN3C(=O)c4ccccc4C3=O)ccc2n1C,IC50,[3],55.2 µM (inactive)
same,AC50,INS1,13.3 µM (active)
same,EC50,[4],> 60 µM (not active)
same,IC50,[5],> 66 µM (inactive)
same,EC50,[6],< 100 nM (active)
COC(=O)[C@@]1(Cc2ccccc2)[C@H]2c3cc(C(=O)N(C)C)n(Cc4ccccc4)c3C[C@H]2CN1C(=O)c1ccccc1,AC50,Cytochrome P450 2D6,39.8 µM (inconclusive)
C=CCn1c(SCC(=O)Nc2cc(NC(C)=O)ccc2OC)nnc1-c1cccnc1,EC50,[2],> 260 µM (inactive)
CC(C)c1ccc(/C=C/C(=O)n2nnc3ccccc32)cc1,EC50,[2],14.2 µM (active)
same,CC50,[7],25.1 µM (active)
CSc1ccccc1N=C(S)Nc1ccc(S(N)(=O)=O)cc1,IC50,[3],> 66 µM (inactive)
same,IC50,[5],> 66 µM (inactive)
CSc1ccc(C(c2c(C)n[nH]c2O)c2c(C)n[nH]c2O)cc1,EC50,Protein RecA,0.241 µM (active)
same,AC50,[1],0.432 µM (active)
CCC(C)(C)n1nnnc1CN(Cc1ccco1)Cc1cc2cc3c(cc2nc1O)OCO3,IC50,[3],> 66 µM (inactive)
same,IC50,[5],> 66 µM (inactive)
O=S(=O)(NC1c2cccc3cccc(c23)C1N1CCNCC1)c1ccc(Cl)cc1 (centres undefined),EC50,[2],> 260 µM (inactive)
COc1ccc(CNC(=O)CCC(=O)N2CC(C)Oc3ccccc32)cc1 (centres undefined),EC50,[2],> 260 µM (inactive)
Cc1cc[n+](-c2[n-]c(=O)sc2C=NNC(=O)c2ccccc2)cc1,IC50,[3],> 66 µM (inactive)
same,IC50,[5],> 66 µM (inactive)
CCc1nc(N2CCN(S(=O)(=O)c3ccc(Br)cc3)CC2)c2c(C)c(C)sc2n1,EC50,[2],> 260 µM (inactive)
CCC(Sc1nc2cc3c(cc2c(=O)n1Cc1ccco1)OCO3)C(=O)Nc1ccccc1OC (centres undefined),AC50,Cytochrome P450 2D6,5.01 µM (inconclusive)
Cc1nonc1C1CCCN1Cc1c[nH]nc1-c1ccc(-c2ccccc2)cc1 (centres undefined),EC50,[2],35.2 µM (active)
same,CC50,[7],21.4 µM (active)
Cn1ccnc1P(=S)(c1nccn1C)N1CCOCC1,IC50,[3],> 66 µM (inactive)
same,IC50,[5],> 66 µM (inactive)
CCOC(=O)CNc1nnc(SCC(=O)OCC)[nH]c1=O,IC50,[3],> 66 µM (inactive)
same,EC50,Protein RecA,0.845 µM (active)
same,IC50,[5],> 66 µM (inactive)
same,AC50,[1],8.14 µM (active)
CCOC(=O)Cn1nnnc1C(C(C)C)N(Cc1cc2c(C)cc(C)cc2[nH]c1=O)C1CCCC1 (centres undefined),EC50,[2],36.9 µM (active)
O=C(CSc1nnc(C2COc3ccccc3O2)o1)NC1CCCCC1 (centres undefined),EC50,[8],> 53 µM (inactive)
same,IC50,[9],> 47.1 µM (inactive)
Cn1c(SCc2nc3ccccc3n2CCO)nc2ccccc21,AC50,Cytochrome P450 2D6,20 µM (inconclusive)
CCOc1cccc(=O)c2c(C)oc(C)c12,IC50,[3],41.6 µM (inactive)
same,IC50,[5],37.3 µM (inactive)
